According to patent publication US4465673A, “Pentagalloylglucose antiviral composition” (Tanaka; Yasuo, priority 1983, dated 1984):

What was measured:
herpes simplex virus = test: Antiviral activity against herpes simplex virus in FL cells (multinucleated giant cell formation); type: cell-based; conditions: FL cell monolayers, sample added 1 h after virus, 36° C., 5% carbon dioxide, 24 hours incubation
Procedure: Antiviral activity of 1,2,3,4,6-pentagalloylglucose against herpes simplex virus was assayed. Procedure:
Monolayers were prepared from dispersed FL cells in Petri dishes of diameter 35 mm, 24 hours prior to the assay. On carrying out the assay, the medium in each dish was poured off and each dish received 1 ml of medium containing herpes simplex virus. The dishes were incubated at 36° C. in a humidified atmosphere containing 5% of gaseous carbon dioxide. After an hour, each dish further received 1 ml of medium and 20-200 μl of an aqueous 1,2,3,4,6-pentagalloylglucose solution. Incubation was continued for 24 hours and then all the dishes were inspected for multinucleated giant cell. Antiviral activity was defined as the minimum concentration of sample at which no multinucleated giant cell appeared.

Acute toxicity in rats = type: in vivo; conditions: in a usual manner
Procedure: Acute toxicity of 1,2,3,4 6-pentagalloylglucose was assayed using rats in a usual manner.

Compound: 1,2,3,4,6-pentagalloylglucose [Product of Example 1]
- Antiviral activity (minimum concentration of sample at which no multinucleated giant cell appeared) (herpes simplex virus): 26 µg/mL

Compound: O=C(OCC1OC(OC(=O)c2cc(O)c(O)c(O)c2)C(OC(=O)c2cc(O)c(O)c(O)c2)C(OC(=O)c2cc(O)c(O)c(O)c2)C1OC(=O)c1cc(O)c(O)c(O)c1)c1cc(O)c(O)c(O)c1 (stereo not drawn) [1,2,3,4,6-pentagalloylglucose]
- minimal effective concentration (herpes simplex virus; read-out: Antiviral activity (minimum concentration of sample at which no multinucleated giant cell appeared)): 25 µg/mL
- Acute toxicity (Acute toxicity in rats): extremely low
